Laboratory results: patent publication US11512053B2, “Arginine methyltransferase inhibitors and uses thereof” (priority 2013, dated 2022)
Where two headings read alike, the source gives them in different places.

Assays:
[1] = target: full-length human PRMT8 isoform 1 (Homo sapiens, UniProt Q9NR22); assay: PRMT8 Biochemical Assay (3H-SAM Flashplate, peptide substrate); settings: read-out: Biochemical IC50 PRMT8
Summary of the method: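 Full-length human PRMT8 (1.5 nM, E. coli-expressed, GST removed) preincubated 30 min at room temperature with compound, then reacted with 50 nM 3H-SAM plus 550 nM cold SAM and 150 nM biotinylated H4 31-45 peptide in 20 mM Bicine pH 7.6, 1 mM TCEP, 0.005% BSG, 0.002% Tween 20, 2% DMSO. Quenched with 400 uM cold SAM; labelled peptide captured on streptavidin Flashplate, % inhibition versus 1 mM SAH and DMSO controls fitted to 4- or 3-parameter curve.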

[2] = tested on: mono-methyl arginine in RKO cells; assay: RKO Methylation Assay, In Cell Western (ICW) for detection of mono-methyl arginine and DNA content; assay type: cell-based; settings: RKO cells; for EC30: Homo sapiens, RKO, 72 h, read-out: In Cell Western EC30
Summary of the method: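 RKO cells were treated with compound for 72 hours at 37 °C, methanol-fixed and stained overnight at 4 °C with anti-mono-methyl arginine (1:200), with DRAQ5 for DNA. Odyssey 800/700 nm intensity ratio was normalized to DMSO and 20 μM reference-compound controls. EC30 from triplicate nine-point curves.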

[3] = single experiment or average of multiple experiments
[4] = 72 hours incubation, mono-methyl arginine signal normalised to DNA content, single experiment or average of multiple experiments
[5] = 72 hours compound incubation, mono-methyl arginine signal normalised to DNA content (DRAQ5), percent activation vs 20 μM reference compound

Chain of full-length human PRMT8 isoform 1 (Q9NR22 whole entry, canonical isoform): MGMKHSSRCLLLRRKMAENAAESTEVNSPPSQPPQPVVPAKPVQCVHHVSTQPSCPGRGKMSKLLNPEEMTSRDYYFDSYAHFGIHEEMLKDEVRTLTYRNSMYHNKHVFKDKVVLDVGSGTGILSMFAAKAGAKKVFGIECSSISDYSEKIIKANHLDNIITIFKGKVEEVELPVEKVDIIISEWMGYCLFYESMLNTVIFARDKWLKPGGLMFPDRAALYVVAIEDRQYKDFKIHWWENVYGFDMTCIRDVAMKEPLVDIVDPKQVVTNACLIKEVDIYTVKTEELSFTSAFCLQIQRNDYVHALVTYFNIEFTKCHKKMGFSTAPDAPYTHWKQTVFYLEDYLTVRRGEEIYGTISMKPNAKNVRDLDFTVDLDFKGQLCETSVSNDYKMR

SMILES | IC50 [1, 3] | IC50 [1] | EC30 [2, 4] | In Cell Western EC30 [2, 5] | EC30 [2, 5]
CNCCN(C)Cc1c[nH]nc1C#Cc1ccc(F)cc1 [Compound 4] | 590 nM |  |  |  | 
CNCCN(C)Cc1c[nH]nc1/C=C/c1ccc(-c2ccccc2)cc1 [Compound 5] | 420 nM |  |  |  | 
Cc1ccc(/C=C/c2n[nH]cc2CN(C)CCN)cc1 [Compound 8] | 360 nM |  |  |  | 
CN(CCN)Cc1c[nH]nc1C1=CCOCC1 [Compound 10] | 1920 nM |  | > 20000 nM | C (“C” indicates an EC30 > 12.01 μM) | 
COc1cc(/C=C/c2n[nH]cc2CN(C)CCN)cc(OC)c1 [Compound 11] | 250 nM |  |  |  | 
CN(CCN)Cc1c[nH]nc1C1CC1 [Compound 12] | > 10000 nM | > 10000 nM |  |  | 
CN(CCN)Cc1c[nH]nc1/C=C/c1ccc(F)cc1F [Compound 13] | 300 nM |  |  |  | 
CN(CCN)Cc1c[nH]nc1/C=C/c1cc(C(F)(F)F)cc(C(F)(F)F)c1 [Compound 14] | 660 nM |  |  |  | 
CN(CCN)Cc1c[nH]nc1/C=C/c1cc(F)cc(F)c1 [Compound 15] | 700 nM |  |  |  | 
CN(CCN)Cc1c[nH]nc1/C=C/c1cccc(C(F)(F)F)c1 [Compound 16] | 690 nM |  |  |  | 
COc1cccc(/C=C/c2n[nH]cc2CN(C)CCN)c1 [Compound 17] | 410 nM |  |  |  | 
CN(CCN)Cc1c[nH]nc1/C=C/c1ccc(C(F)(F)F)cc1 [Compound 18] | 40 nM |  |  |  | 
COC/C=C/c1n[nH]cc1CN(C)CCN [Compound 19] | 2300 nM |  |  |  | 
CN(CCN)Cc1c[nH]nc1/C=C/c1cccc(F)c1 [Compound 20] | 470 nM |  |  |  | 
CC(C)c1n[nH]cc1CN(C)CCN [Compound 21] | 9560 nM |  | > 20000 nM | C (“C” indicates an EC30 > 12.01 μM) | 
CN(CCN)Cc1c[nH]nc1CCc1ccc(F)cc1 [Compound 23, N^1-((3-(4-fluorophenethyl)-1H-pyrazol-4-yl)methyl)-N^1-methylethane-1,2-diamine] | 280 nM |  | 1610 nM | A (“A” indicates an EC30 ≤ 3.00 μM) | 
CN(CCN)Cc1c[nH]nc1/C=C/Cc1ccccc1 [Compound 24] | 300 nM |  | 2400 nM | A (“A” indicates an EC30 ≤ 3.00 μM) | 
CN(CCN)Cc1c[nH]nc1C(C)(C)C [Compound 27] | > 10000 nM | > 10000 nM | > 20000 nM | C (“C” indicates an EC30 > 12.01 μM) | 
CC(C)Cc1n[nH]cc1CN(C)CCN [Compound 28, N^1-((3-iso-butyl-1H-pyrazol-4-yl)methyl)-N^1-methylethane-1,2-diamine] | 1680 nM |  | 11100 nM |  | 3010 to 12000 nM
CNCCN(C)Cc1c[nH]nc1C1CCC(COC(C)C)(COC(C)C)CC1 [Compound 61] |  |  | 149 nM |  | < 3000 nM

Further lines, with some results ahead:

IC50 [1, 3] | IC50 [1] | SMILES | EC30 [2, 4] | In Cell Western EC30 [2, 5] | EC30 [2, 5]
390 nM |  | CNCCN(C)Cc1c[nH]nc1C#Cc1cccc(OC)c1 [Compound 1] |  |  | 
170 nM |  | CNCCN(C)Cc1c[nH]nc1C#Cc1ccc(C(C)(C)C)cc1 [Compound 2] |  |  | 
240 nM |  | CNCCN(C)Cc1c[nH]nc1/C=C/c1ccc(C(F)(F)F)cc1 [Compound 6] |  |  | 
520 nM |  | CNCCN(C)Cc1c[nH]nc1/C=C/c1ccc(OC)cc1 [Compound 7] |  |  | 
300 nM |  | CN(CCN)Cc1c[nH]nc1C1CCCCC1 [Compound 22] | 1240 nM | A (“A” indicates an EC30 ≤ 3.00 μM) | 
2860 nM |  | CN(CCN)Cc1c[nH]nc1C1=CCCC1 [Compound 25] | 11800 nM | B (“B” indicates an EC30 of 3.01-12.00 μM) | 
5630 nM |  | CN(CCN)Cc1c[nH]nc1C1CCC1 [Compound 26] | > 20000 nM | C (“C” indicates an EC30 > 12.01 μM) | 
3810 nM |  | CCCc1n[nH]cc1CN(C)CCN [Compound 29] | > 20000 nM | C (“C” indicates an EC30 > 12.01 μM) | 
> 10000 nM |  | Cc1n[nH]cc1CN(C)CCN [Compound 30] | > 20000 nM | C (“C” indicates an EC30 > 12.01 μM) | 
1150 nM |  | CN(CCN)Cc1c[nH]nc1C1CCCC1 [Compound 31] | > 20000 nM | C (“C” indicates an EC30 > 12.01 μM) | 
770 nM |  | CNCCN(C)Cc1c[nH]nc1C1CCN(C(=O)Cc2ccccc2)CC1 [Compound 32] | 2350 nM | A (“A” indicates an EC30 ≤ 3.00 μM) | 
500 nM |  | CN(CCN)Cc1n[nH]cc1C1CCCCC1 [Compound 33] | 3330 nM | B (“B” indicates an EC30 of 3.01-12.00 μM) | 
440 nM |  | CNCCN(C)Cc1c[nH]nc1C1CCN(C(=O)C(C)C)CC1 [Compound 34] | 1150 nM | A (“A” indicates an EC30 ≤ 3.00 μM) | 
140 nM |  | CC1CCC(c2c[nH]nc2CN(C)CCN)CC1 (centres unmarked) [Compound 35] | 730 nM | A (“A” indicates an EC30 ≤ 3.00 μM) | 
280 nM |  | CN(CCN)Cc1n[nH]cc1C1CCC(C)(C)CC1 [Compound 36] | 630 nM | A (“A” indicates an EC30 ≤ 3.00 μM) | 
130 nM |  | CC1CCC(c2n[nH]cc2CN(C)CCN)CC1 (centres unmarked) [Compound 37, N^1-methyl-N^1-((3-(4-methylcyclohexyl)-1H-pyrazol-4-yl)methyl)ethane-1,2-diamine] | 260 nM | A (“A” indicates an EC30 ≤ 3.00 μM) | 
260 nM |  | CN(CCN)Cc1c[nH]nc1C1CCC(C)(C)CC1 [Compound 38, N^1-((3-(4,4-dimethylcyclohexyl)-1H-pyrazol-4-yl)methyl)-N^1-methylethane-1,2-diamine] | 130 nM | A (“A” indicates an EC30 ≤ 3.00 μM) | 
360 nM |  | CNCCN(C)Cc1c[nH]nc1C1CCN(CC(C)C)CC1 [Compound 39, N^1-((3-(1-isobutylpiperidin-4-yl)-1H-pyrazol-4-yl)methyl)-N^1,N^2-dimethylethane-1,2-diamine] | 500 nM | A (“A” indicates an EC30 ≤ 3.00 μM) | 
88.1 nM | < 100 nM | CNCCN(C)Cc1c[nH]nc1C1CCC(C)(C)C(C(=O)NCCCOC)C1 (centres unmarked) [Compound 93] |  |  | 
210 nM | 101 to 1000 nM | CNCCN(C)Cc1c[nH]nc1[C@H]1CCC(C)(C)[C@@H](C(=O)NCCOC)C1 [Compound 268] |  |  | 
155 nM | 101 to 1000 nM | CNCCN(C)Cc1c[nH]nc1[C@@H]1CCC(C)(C)[C@@H](C(=O)NCCOC)C1 [Compound 269] |  |  | 
204 nM | 101 to 1000 nM | CNCCN(C)Cc1c[nH]nc1[C@H]1CCC(C)(C)[C@@H](C(=O)NCCCOC)C1 [Compound 270] |  |  | 
100 nM | < 100 nM | CNCCN(C)Cc1c[nH]nc1[C@@H]1CCC(C)(C)[C@@H](C(=O)NCCCOC)C1 [Compound 271, (1S,5R)—N-(3-methoxypropyl)-2,2-dimethyl-5-[4-({methyl[2-(methylamino)ethyl]amino}methyl)-1H-pyrazol-3-yl]cyclohexane-1-carboxamide] |  |  | 
25.8 nM | < 100 nM | CNCCN(C)Cc1c[nH]nc1C1CCC(C)(C)[C@H](OCCCOC)C1 (some centres unmarked) [Compound 272] |  |  | 
22.6 nM | < 100 nM | CNCCN(C)Cc1c[nH]nc1C1CCC(C)(C)[C@H](OCC2CCOCC2)C1 (stereo partly drawn) [Compound 273, ({3-[(3R)-4,4-dimethyl-3-(oxan-4-ylmethoxy)cyclohexyl]-1H-pyrazol-4-yl}methyl)(methyl)[2-(methylamino)ethyl]amine] |  |  | 
